Legend:
E. coli in UTI samples = test: Flow cytometric antibiotic sensitivity of positive UTI urine samples (Firsway clinic) in Terrific Broth with diS-C3(5); format: cell-based; set-up: key: R—resistant; S—sensitive; details: antibiotic at nominal 3x MIC
Excerpt: Initial studies used a Sony SH-800 instrument, but all studies reported here used an Intellicyt® iQue screener PLUS. This instrument is based in significant measure on developments by Sklar and colleagues (e.g. (Edwards et al. 2009; Sklar et al. 2007; Tegos et al. 2014)), and uses segmented flow (Skeggs 1957) to sample from 96- or 384-well U- or V-bottom plates prior to their analysis. The iQue Plus contains three excitation sources (405 nm, 488 nm, 640 nm) and 7 fixed filter detectors (with a midpoint/range in nm of 445/45, 530/30, 572/28, 585/40, 615/24, 675/30, 780/60, giving 13 fluorescence channels) whose outputs are stored as both ‘height’ and area, using the FCS3.0 data file standard (Seamer et al. 1997). Forward and side scatter are obtained from the 488 nm excitation source. Detection channels are referred to by the laser used (405 nm violet VL, 488 nm blue BL, and 640 nm red RL) and the detector number in order of possible detectors with a longer wavelength. Thus RL1, as used for detecting di-S-C3(5), implies the red laser and the 675/30 detector. Data are collected from all channels, using a dynamic range of 7 logs. Many parameters may be used to vary the precise performance of the instrument. Those we found material to provide the best reproducibility and to minimise carryover, and their selected values, are as follows: Automatic prime—60 secs (in Qsol buffer); Pre-plate shake—15 s and 1500 rpm; Sip time—2 s (actual sample uptake); Additional sip time—0.5 s (the gap between sips); Pump speed—29 rpm (1.5 μL·s^−1 sample uptake); Plate model—U-bottom well plate (for 96 well plates); Mid plate cleanup—After every well (4 washes; 0.5 s each in Qsol buffer); Inter-well shake—1500 rpm; after 6 wells, 4 sec in Qsol buffer; Flush and Clean—30 sec with Decon and Clean buffers followed by 60 sec with deionised water. The Forecyt™ software supplied with the instrument may be used to gate and display all the analyses post hoc. It, and the FlowJo software, were used in the preparation of the cytograms shown. Where used, di-S-C3(5) was present at a final concentration of 3 μM; its analysis used excitation at 640 nm and detection at 675±15 nm, the fluorescence channel being referred to as RL1. For DNA analyses, cells were fixed by injection into ice-cold ethanol (final concentration 70%), washed twice by centrifugation in 0.1 M-Tris/HCl buffer, pH 7.4, before resuspension in the same buffer containing mithramycin (50 μg mL^−1) and ethidium bromide (25 μg mL^−1), MgCl2, (25 mM) and NaCl (100 mM) (Boye et al. 1983). […] All the solutions and media used were filtered through 0.2 μm filter.
Samples were taken at various times during the day, kept at 4° C., delivered to the Manchester laboratory by taxi, plated out (LB agar containing as appropriate the stated antibiotics at 3 times normal MIC) to assess microbial numbers and antibiotic sensitivity, the remaining sample kept again at 4° C., and analysed flow cytometrically within 18 h. For flow cytometric assessment, cells were diluted into 37° C. Terrific Broth containing 3 μM diS-C3(5) plus any appropriate antibiotic, and assayed as above. For other experiments (not shown) cells were filtered (0.45 μm) and diluted as appropriate into warmed terrific broth.
Finally, we wished to determine whether this method, as developed in laboratory cultures, could be applied to candidate UTI specimens ‘as received’ in a doctor's surgery.

E. coli MG1655 = test: Flow cytometric particle counting of proliferation with antibiotic in 20 mins (FIG. 6C); format: cell-based; details: sensitive strain E. coli MG1655, Terrific Broth
Excerpt: Initial studies used a Sony SH-800 instrument, but all studies reported here used an Intellicyt® iQue screener PLUS. This instrument is based in significant measure on developments by Sklar and colleagues (e.g. (Edwards et al. 2009; Sklar et al. 2007; Tegos et al. 2014)), and uses segmented flow (Skeggs 1957) to sample from 96- or 384-well U- or V-bottom plates prior to their analysis. The iQue Plus contains three excitation sources (405 nm, 488 nm, 640 nm) and 7 fixed filter detectors (with a midpoint/range in nm of 445/45, 530/30, 572/28, 585/40, 615/24, 675/30, 780/60, giving 13 fluorescence channels) whose outputs are stored as both ‘height’ and area, using the FCS3.0 data file standard (Seamer et al. 1997). Forward and side scatter are obtained from the 488 nm excitation source. Detection channels are referred to by the laser used (405 nm violet VL, 488 nm blue BL, and 640 nm red RL) and the detector number in order of possible detectors with a longer wavelength. Thus RL1, as used for detecting di-S-C3(5), implies the red laser and the 675/30 detector. Data are collected from all channels, using a dynamic range of 7 logs. Many parameters may be used to vary the precise performance of the instrument. Those we found material to provide the best reproducibility and to minimise carryover, and their selected values, are as follows: Automatic prime—60 secs (in Qsol buffer); Pre-plate shake—15 s and 1500 rpm; Sip time—2 s (actual sample uptake); Additional sip time—0.5 s (the gap between sips); Pump speed—29 rpm (1.5 μL·s^−1 sample uptake); Plate model—U-bottom well plate (for 96 well plates); Mid plate cleanup—After every well (4 washes; 0.5 s each in Qsol buffer); Inter-well shake—1500 rpm; after 6 wells, 4 sec in Qsol buffer; Flush and Clean—30 sec with Decon and Clean buffers followed by 60 sec with deionised water. […] Where used, di-S-C3(5) was present at a final concentration of 3 μM; its analysis used excitation at 640 nm and detection at 675±15 nm, the fluorescence channel being referred to as RL1. […]

[1] = UTI sample May 25, 2018 (first listed)
[2] = UTI sample May 25, 2018 (second listed)

Compound | Antibiotic sensitivity (E. coli in UTI samples; UTI sample Jul. 16, 2018) | Antibiotic sensitivity (E. coli in UTI samples; UTI sample Jul. 18, 2018) | Antibiotic sensitivity (E. coli in UTI samples; UTI sample Jul. 20, 2018) | Antibiotic sensitivity (E. coli in UTI samples; UTI sample Jun. 6, 2018) | Antibiotic sensitivity (E. coli in UTI samples; [1]) | Antibiotic sensitivity (E. coli in UTI samples; [2]) | Effect on cell proliferation (E. coli MG1655)
CC1(C)S[C@@H]2[C@H](NC(=O)[C@H](N)c3ccccc3)C(=O)N2[C@H]1C(=O)O [Ampicillin] | R | R | S | R | R | S | work effectively
O=C(O)c1cn(C2CC2)c2cc(N3CCNCC3)c(F)cc2c1=O [Ciprofloxacin] |  |  |  |  |  |  | work effectively
O=C1CN(/N=C/c2ccc([N+](=O)[O-])o2)C(=O)N1 [Nitrofurantoin] | S | R | S | S | S | S | 
COc1cc(Cc2cnc(N)nc2N)cc(OC)c1OC [Trimethoprim] | S | S | R | S | R | S | work effectively

Source: US20210395794A1, “Antimicrobial Susceptibility Assay and Kit” (The University of Manchester, priority 2018, published 2021)
